# Tested on: patients with advanced solid tumors
# Assay: Phase I dose escalation: safety, tolerability, DLTs and MTD
# Assay type: in vivo
# Description: DDRiver Solid Tumors 410 was an open-label, first-in-human, multicenter, phase I study of lartesertib monotherapy, continuously administered once daily, conducted at three study sites in the United States and Canada. Part 1A was a lartesertib monotherapy dose-escalation study designed to evaluate the safety, tolerability, pharmacokinetics (PK), pharmacodynamics (PD), and early signs of efficacy in patients with advanced solid tumors. Patients were treated with lartesertib at increasing dose levels (DLs) ranging from 100 to 400 mg once daily. Each DL included a dose-limiting toxicity (DLT) observation period of 21 days; treatment was continued until disease progression, death, consent withdrawal, unacceptable toxicity, or the end of the study. Additional details are provided under Study Design in the Supplementary Material S1.
# The primary endpoints were the occurrence of DLTs, adverse events (AE), and treatment-related and treatment-emergent AEs (TEAE), along with the occurrence of clinically significant changes in vital signs, laboratory parameters, and 12-lead electrocardiogram findings. The secondary endpoints included PK parameters of lartesertib in plasma after single and multiple doses; establishment of the recommended dose for expansion based on safety, PK, and PD data; absolute and relative changes overtime from baseline in ATM pathway readouts assessed by flow cytometry and immunohistochemistry; and objective response, duration of response, and progression-free survival (PFS) according to the RECIST version 1.1, as assessed by the investigator. Exploratory endpoints included the correlation of baseline and on-treatment biomarkers with response to lartesertib treatment as well as relative changes in total blood cell count, immune cells, and circulatory factors during exposure to lartesertib.
# The DLT analysis set included all patients who received ≥80% of the planned cumulative dose during the DLT period (Period 1) and had completed the DLT period, or patients who experienced ≥1 DLT during the DLT period, regardless of the number of lartesertib doses administered. Additional details on all analysis sets are provided in the Supplementary Material S1. Analyses to determine dose escalation were performed on the DLT analysis set and were based on available safety and PK data. A Bayesian two-parameter logistic regression model (BLRM) was applied to assist the safety monitoring committee in dose recommendations during lartesertib dose escalation. For the determination of the MTD, posterior probabilities (2.5%, 25%, 50%, 75%, and 97.5% quantiles) for DLT rates at selected doses were estimated by a BLRM. The target toxicity of the model for MTD was set at 30%.
# AEs and diseases were coded according to the Medical Dictionary for Regulatory Activities (RRID: SCR_003751) version 25.1 (until 30 days after the last study treatment). The severity of AEs was graded using the NCI Common Terminology Criteria for Adverse Events (RRID: SCR_010296) version 5.0.
# Part 1A was a lartesertib monotherapy dose-escalation designed to determine the safety, tolerability, pharmacokinetics (PK), pharmacodynamics (PD), and early signs of efficacy in participants with solid tumors. For each patient, the study included a Screening period lasting up to 28 days and the estimated total duration in the study was an approximate of 105 days/15 weeks. Patients were treated with lartesertib orally as a tablet, at doses ranging from 100 to 400 mg once daily (QD) under a fasting condition of 2 hours pre-dose to 1-hour post-dose in general, and 2 hours pre-dose to 4 hours post-dose on days where PK-time matched triplicate ECG were collected. Patients were treated until disease progression, death, adverse events (AEs) leading to discontinuation of study intervention(s), or withdrawal of consent, whichever occurred first, or end of study. […]
compound,measurement,setting,value
COc1cc2ncc3c(c2cc1-c1cn(C)nc1C)n(-c1c(F)cncc1OC)c(=O)n3C [lartesertib],Any TEAE leading to death,100 mg n = 2,0 (0.0) n (%)
same,Any lartesertib-related TEAE leading to death,100 mg n = 2,0 (0.0) n (%)
same,TEAE: Urinary tract infection,100 mg n = 2,0 (0.0) n (%)
same,Any TEAE leading to death,200 mg n = 7,0 (0.0) n (%)
same,Any lartesertib-related TEAE leading to death,200 mg n = 7,0 (0.0) n (%)
same,TEAE: Urinary tract infection,200 mg n = 7,1 (14.3) n (%)
same,Any TEAE leading to death,300 mg n = 9,0 (0.0) n (%)
same,Any lartesertib-related TEAE leading to death,300 mg n = 9,0 (0.0) n (%)
same,TEAE: Urinary tract infection,300 mg n = 9,1 (11.1) n (%)
same,Any TEAE leading to death,400 mg n = 4,0 (0.0) n (%)
same,Any lartesertib-related TEAE leading to death,400 mg n = 4,0 (0.0) n (%)
same,TEAE: Urinary tract infection,400 mg n = 4,2 (50.0) n (%)
same,Any TEAE leading to death,Total N = 22,0 (0.0) n (%)
same,Any lartesertib-related TEAE leading to death,Total N = 22,0 (0.0) n (%)
same,TEAE: Urinary tract infection,Total N = 22,4 (18.2) n (%)
same,"Abdominal pain, Grade ≥3","human, in vivo",1 (4.5) n (%)
same,"Abdominal pain, Grade ≥4","human, in vivo",0 (0.0) n (%)
same,"Abdominal pain, Grade ≥5","human, in vivo",0 (0.0) n (%)
same,"Alanine aminotransferase increased, Grade ≥3","human, in vivo",2 (9.2) n (%)
same,"Alanine aminotransferase increased, Grade ≥4","human, in vivo",0 (0.0) n (%)
same,"Alanine aminotransferase increased, Grade ≥5","human, in vivo",0 (0.0) n (%)
same,"Anemia, Grade ≥3","human, in vivo",4 (18.2) n (%)
same,"Anemia, Grade ≥4","human, in vivo",0 (0.0) n (%)
same,"Anemia, Grade ≥5","human, in vivo",0 (0.0) n (%)
same,Any AESI cytopenia,"human, in vivo",4 (18.2) n (%)
same,"Any AESI cytopenia, Grade ≥3 (all anemia events)","human, in vivo",4 (18.2) n (%)
same,Any TEAE,"human, in vivo",22 (100.0) n (%)
same,Any TEAE leading to permanent treatment discontinuation,"human, in vivo",5 (22.7) n (%)
same,Any TEAE leading to temporary treatment discontinuation,"human, in vivo",5 (22.7) n (%)
same,"Any TEAE, Grade ≥3","human, in vivo",13 (59.1) n (%)
same,"Any TEAE, Grade ≥4","human, in vivo",1 (4.5) n (%)
same,Any lartesertib-related TEAE,"human, in vivo",15 (68.2) n (%)
same,"Any lartesertib-related TEAE, Grade ≥3","human, in vivo",4 (18.2) n (%)
same,"Any lartesertib-related TEAE, Grade ≥4","human, in vivo",1 (4.5) n (%)
same,Any lartesertib-related serious TEAE,"human, in vivo",2 (9.1) n (%)
same,Any serious TEAE,"human, in vivo",9 (40.9) n (%)
same,"Aspartate aminotransferase increased, Grade ≥3","human, in vivo",3 (13.6) n (%)
same,"Aspartate aminotransferase increased, Grade ≥4","human, in vivo",0 (0.0) n (%)
same,"Aspartate aminotransferase increased, Grade ≥5","human, in vivo",0 (0.0) n (%)
same,"Blood alkaline phosphatase increased, Grade ≥3","human, in vivo",1 (4.5) n (%)
same,"Blood alkaline phosphatase increased, Grade ≥4","human, in vivo",0 (0.0) n (%)
same,"Blood alkaline phosphatase increased, Grade ≥5","human, in vivo",0 (0.0) n (%)
same,"Blood and lymphatic system disorders, Grade ≥3","human, in vivo",4 (18.2) n (%)
same,"Blood and lymphatic system disorders, Grade ≥4","human, in vivo",0 (0.0) n (%)
same,"Blood and lymphatic system disorders, Grade ≥5","human, in vivo",0 (0.0) n (%)
same,"Blood bilirubin increased, Grade ≥3","human, in vivo",1 (4.5) n (%)
same,"Blood bilirubin increased, Grade ≥4","human, in vivo",0 (0.0) n (%)
same,"Blood bilirubin increased, Grade ≥5","human, in vivo",0 (0.0) n (%)
same,"Decreased appetite, Grade ≥3","human, in vivo",1 (4.5) n (%)
same,"Decreased appetite, Grade ≥4","human, in vivo",0 (0.0) n (%)
same,"Decreased appetite, Grade ≥5","human, in vivo",0 (0.0) n (%)
same,"Decreased neutrophil count, grade 1 or 2","human, in vivo",4.5%
same,"Decreased platelet count, grade 1 or 2","human, in vivo",4.5%
same,"Decreased white blood cell count, grade 1 or 2","human, in vivo",4.5%
same,"Dehydration, Grade ≥3","human, in vivo",1 (4.5) n (%)
same,"Dehydration, Grade ≥4","human, in vivo",0 (0.0) n (%)
same,"Dehydration, Grade ≥5","human, in vivo",0 (0.0) n (%)
same,"Gamma-glutamyltransferase increased, Grade ≥3","human, in vivo",1 (4.5) n (%)
same,"Gamma-glutamyltransferase increased, Grade ≥4","human, in vivo",0 (0.0) n (%)
same,"Gamma-glutamyltransferase increased, Grade ≥5","human, in vivo",0 (0.0) n (%)
same,"Gastrointestinal disorders, Grade ≥3","human, in vivo",3 (13.6) n (%)
same,"Gastrointestinal disorders, Grade ≥4","human, in vivo",0 (0.0) n (%)
same,"Gastrointestinal disorders, Grade ≥5","human, in vivo",0 (0.0) n (%)
same,Grade ≥3 anemia,"human, in vivo",18.2%
same,Grade ≥3 decreased lymphocyte count,"human, in vivo",13.6%
same,Grade ≥3 increased aspartate aminotransferase,"human, in vivo",13.6%
same,Grade ≥3 maculopapular rash,"human, in vivo",13.6%
same,"Immune system disorders, Grade ≥3","human, in vivo",1 (4.5) n (%)
same,"Immune system disorders, Grade ≥4","human, in vivo",1 (4.5) n (%)
same,"Immune system disorders, Grade ≥5","human, in vivo",0 (0.0) n (%)
same,"Investigations, Grade ≥3","human, in vivo",6 (27.3) n (%)
same,"Investigations, Grade ≥4","human, in vivo",0 (0.0) n (%)
same,"Investigations, Grade ≥5","human, in vivo",0 (0.0) n (%)
same,Lartesertib-related TEAE: Aspartate aminotransferase increased,"human, in vivo",3 (13.6) n (%)
same,Lartesertib-related TEAE: Blood creatinine increased,"human, in vivo",3 (13.6) n (%)
same,Lartesertib-related TEAE: Diarrhea,"human, in vivo",4 (18.2) n (%)
same,Lartesertib-related TEAE: Headache,"human, in vivo",3 (13.6) n (%)
same,Lartesertib-related TEAE: Maculopapular rash,"human, in vivo",5 (22.7) n (%)
same,Lartesertib-related TEAE: Nausea,"human, in vivo",5 (22.7) n (%)
same,Lartesertib-related TEAE: Pyrexia,"human, in vivo",6 (27.3) n (%)
same,"Lymphocyte count decreased, Grade ≥3","human, in vivo",3 (13.6) n (%)
same,"Lymphocyte count decreased, Grade ≥4","human, in vivo",0 (0.0) n (%)
same,"Lymphocyte count decreased, Grade ≥5","human, in vivo",0 (0.0) n (%)
same,"Maculopapular rash, Grade ≥3","human, in vivo",3 (13.6) n (%)
same,"Maculopapular rash, Grade ≥4","human, in vivo",0 (0.0) n (%)
same,"Maculopapular rash, Grade ≥5","human, in vivo",0 (0.0) n (%)
same,"Metabolism and nutrition disorders, Grade ≥3","human, in vivo",1 (4.5) n (%)
same,"Metabolism and nutrition disorders, Grade ≥4","human, in vivo",0 (0.0) n (%)
same,"Metabolism and nutrition disorders, Grade ≥5","human, in vivo",0 (0.0) n (%)
same,"Nausea, Grade ≥3","human, in vivo",2 (9.1) n (%)
same,"Nausea, Grade ≥4","human, in vivo",0 (0.0) n (%)
same,"Nausea, Grade ≥5","human, in vivo",0 (0.0) n (%)
same,Patients with at least one TEAE,"human, in vivo",100%
same,Patients with at least one lartesertib-related TEAE,"human, in vivo",68.2%
same,Patients with lartesertib-related grade 3 TEAEs,"human, in vivo",18.2%
same,Patients with serious TEAEs,"human, in vivo",40.9%
same,Serious TEAE maculopapular rash,"human, in vivo",9.1%
same,Serious TEAE nausea,"human, in vivo",9.1%
same,"Skin and subcutaneous tissue disorders, Grade ≥3","human, in vivo",3 (13.6) n (%)
same,"Skin and subcutaneous tissue disorders, Grade ≥4","human, in vivo",0 (0.0) n (%)
same,"Skin and subcutaneous tissue disorders, Grade ≥5","human, in vivo",0 (0.0) n (%)
same,TEAE fatigue,"human, in vivo",40.9%
same,TEAE increased blood creatinine,"human, in vivo",27.3%
same,TEAE nausea,"human, in vivo",27.3%
same,TEAE pyrexia,"human, in vivo",36.4%
same,TEAE: Abdominal pain,"human, in vivo",4 (18.2) n (%)
same,TEAE: Alanine aminotransferase increased,"human, in vivo",4 (18.2) n (%)
same,TEAE: Anemia,"human, in vivo",4 (18.2) n (%)
same,TEAE: Aspartate aminotransferase increased,"human, in vivo",4 (18.2) n (%)
same,TEAE: Blood bilirubin increased,"human, in vivo",3 (13.6) n (%)
same,TEAE: Blood creatinine increased,"human, in vivo",6 (27.3) n (%)
same,TEAE: Decreased appetite,"human, in vivo",3 (13.6) n (%)
same,TEAE: Diarrhea,"human, in vivo",4 (18.2) n (%)
same,TEAE: Fatigue,"human, in vivo",9 (40.9) n (%)
same,TEAE: Headache,"human, in vivo",3 (13.6) n (%)
same,TEAE: Lymphocyte count decreased,"human, in vivo",3 (13.6) n (%)
same,TEAE: Maculopapular rash,"human, in vivo",5 (22.7) n (%)
same,TEAE: Nausea,"human, in vivo",6 (27.3) n (%)
same,TEAE: Pyrexia,"human, in vivo",8 (36.4) n (%)
same,TEAE: Vomiting,"human, in vivo",5 (22.7) n (%)
same,"TEAEs, subjects with at least one event, Grade ≥3","human, in vivo",13 (59.1) n (%)
same,"TEAEs, subjects with at least one event, Grade ≥4","human, in vivo",1 (4.5) n (%)
same,"TEAEs, subjects with at least one event, Grade ≥5","human, in vivo",0 (0.0) n (%)
same,"Vomiting, Grade ≥3","human, in vivo",1 (4.5) n (%)
same,"Vomiting, Grade ≥4","human, in vivo",0 (0.0) n (%)
same,"Vomiting, Grade ≥5","human, in vivo",0 (0.0) n (%)
same,Changes in vital signs and triplicate electrocardiogram values,in vivo,No clinically meaningful changes
same,Patients with ≥1 treatment-related adverse events of grade ≥3,in vivo,Five patients
same,Maximum tolerated dose (MTD),"oral, continuous once daily monotherapy, suggested by BLRM",300 mg once daily
same,TEAEs leading to death,study period,No TEAEs led to death

# Reference: PMC12580772, “A First-in-Human Study of ATM Inhibitor Lartesertib as Monotherapy in Patients with Advanced Solid Tumors” (Clinical Cancer Research, 2025)
